# From patent US20250171431A1, “HETEROCYCLIC INHIBITORS OF IGF-1R FOR TREATMENT OF DISEASE” (HORIZON THERAPEUTICS IRELAND DAC, priority 2023, published 2025)
# pIC50: −log10 of the molar value.
# Target: IGF-1R (Homo sapiens (Human), UniProt P08069)
# Experiment: Example B-1: IGF-1R Assay (PC3 cells, IGF1 stimulation, AlphaLISA)
# Type: cell-based
# Details: 200 ng/mL IGF1 stimulation, read-out: Biological Activity against IGF-1R IC50
# In short: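 PC3 cells were serum-starved 2 h, treated with serially diluted compounds for 2 h, then stimulated with IGF1 (200 ng/mL final) for 30 min. Lysates were read by AlphaLISA; % inhibition was calculated relative to vehicle and EC80 controls, with IC50 values binned into ranges.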
# Chain of IGF-1R (P08069 31-1367): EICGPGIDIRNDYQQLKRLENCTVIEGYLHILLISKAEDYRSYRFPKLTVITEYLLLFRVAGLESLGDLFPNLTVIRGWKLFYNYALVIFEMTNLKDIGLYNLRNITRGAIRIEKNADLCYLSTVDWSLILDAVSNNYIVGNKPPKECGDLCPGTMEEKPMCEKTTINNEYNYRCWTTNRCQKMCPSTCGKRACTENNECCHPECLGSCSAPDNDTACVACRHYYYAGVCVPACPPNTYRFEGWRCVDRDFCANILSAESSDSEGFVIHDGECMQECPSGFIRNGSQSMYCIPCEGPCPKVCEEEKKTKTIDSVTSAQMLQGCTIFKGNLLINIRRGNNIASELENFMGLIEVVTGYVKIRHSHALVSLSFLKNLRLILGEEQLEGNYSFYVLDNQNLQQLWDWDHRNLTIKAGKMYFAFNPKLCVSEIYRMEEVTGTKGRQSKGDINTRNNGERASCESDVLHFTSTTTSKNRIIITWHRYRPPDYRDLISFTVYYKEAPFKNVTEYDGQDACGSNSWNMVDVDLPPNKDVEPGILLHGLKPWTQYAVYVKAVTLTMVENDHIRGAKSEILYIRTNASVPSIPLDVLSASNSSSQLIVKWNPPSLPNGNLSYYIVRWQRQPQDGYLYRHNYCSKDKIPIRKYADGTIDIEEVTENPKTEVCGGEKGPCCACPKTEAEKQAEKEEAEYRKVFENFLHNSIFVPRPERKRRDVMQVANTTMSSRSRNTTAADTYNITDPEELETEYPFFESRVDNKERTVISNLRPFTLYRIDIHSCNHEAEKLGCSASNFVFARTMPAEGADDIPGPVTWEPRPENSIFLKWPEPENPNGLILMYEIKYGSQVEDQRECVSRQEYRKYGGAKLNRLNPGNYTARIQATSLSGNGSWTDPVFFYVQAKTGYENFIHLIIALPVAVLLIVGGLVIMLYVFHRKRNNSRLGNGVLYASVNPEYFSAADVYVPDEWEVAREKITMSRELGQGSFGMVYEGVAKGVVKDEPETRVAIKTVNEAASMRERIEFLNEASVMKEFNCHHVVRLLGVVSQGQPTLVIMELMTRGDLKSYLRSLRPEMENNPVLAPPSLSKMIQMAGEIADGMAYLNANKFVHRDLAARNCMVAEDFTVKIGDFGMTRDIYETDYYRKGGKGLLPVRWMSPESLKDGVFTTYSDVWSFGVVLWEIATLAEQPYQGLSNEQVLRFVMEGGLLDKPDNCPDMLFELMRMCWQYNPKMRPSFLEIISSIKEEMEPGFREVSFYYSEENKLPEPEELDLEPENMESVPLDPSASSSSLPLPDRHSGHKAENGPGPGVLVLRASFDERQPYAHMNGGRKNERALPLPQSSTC
row,Structure (SMILES),pIC50
1,"COc1ccc2cc(Nc3ccnc(Nc4ccc(O[C@H]5C[C@H]6COC[C@@H](C5)N6C)cc4)n3)cnc2c1 [Compound 346, 2-(p-{(1R,5S,7r)-9-methyl-3-oxa-9-azabicyclo[3.3.1]non-7-yloxy}phenylamino)-4-(7-methoxy-3-quinolylamino)pyrimidine]",5.70 to 6.30
2,O=S1(=O)CCN([C@H]2C[C@H](Oc3ccc(Nc4nccc(Nc5cnc6ccc(Br)cc6c5)n4)cc3)C2)CC1 [Compound 347],≥ 6.30
3,O=S1(=O)CCN([C@H]2C[C@H](Oc3ccc(Nc4nccc(Nc5cnc6c(c5)OCCO6)n4)cc3)C2)CC1 [Compound 348],≥ 6.30
4,O=S1(=O)CCN([C@H]2C[C@H](Oc3ccc(Nc4nccc(Nc5cnc6c(Cl)cccc6c5)n4)cc3)C2)CC1 [Compound 349],5.70 to 6.30
5,"O=S1(=O)CCN([C@H]2C[C@H](Oc3ccc(Nc4nccc(Nc5cnc6cc(Cl)ccc6c5)n4)cc3)C2)CC1 [Compound 350, 4-[(1r,3r)-3-{p-[4-(7-chloro-3-quinolylamino)-2-pyrimidinylamino]phenoxy}cyclobutyl]-1λ^6,4-thiazinane-1,1-dione]",5.00 to 5.70
6,"O=S1(=O)CCN([C@H]2C[C@H](Oc3ccc(Nc4nccc(Nc5cnc6c(c5)C5CCC6C5)n4)cc3)C2)CC1 (some centres unmarked) [Compound 351, 4-[(1r,3r)-3-[p-(4-{3-azatricyclo[6.2.1.02,7]undeca-2(7),3,5-trien-5-ylamino}-2-pyrimidinylamino)phenoxy]cyclobutyl]-1λ^6,4-thiazinane-1,1-dione]",5.70 to 6.30
7,"COc1ccc2cc(Nc3ccnc(Nc4ccc(O[C@H]5C[C@@H](N6CCOCC6)C5)cc4)n3)cnc2c1 [Compound 352, 4-(7-methoxy-3-quinolylamino)-2-{p-[(1s,3s)-3-morpholinocyclobutoxy]phenylamino}pyrimidine]",5.00 to 5.70
8,COc1ccc2cc(Nc3ccnc(Nc4ccc(O[C@H]5C[C@H](N6CCS(=O)(=O)CC6)C5)cc4)n3)cnc2c1 [Compound 353],5.00 to 5.70
9,"COc1ccc2cc(Nc3ccnc(Nc4ccc(O[C@H]5C[C@H](N6CCCCC6)C5)cc4)n3)cnc2c1 [Compound 354, 4-(7-methoxy-3-quinolylamino)-2-{p-[(1r,3r)-3-piperidinocyclobutoxy]phenylamino}pyrimidine]",5.00 to 5.70
10,"COc1ccc2cc(Nc3ccnc(Nc4ccc(O[C@H]5C[C@H](N(C)C)C5)cc4)n3)cnc2c1 [Compound 355, 4-(7-methoxy-3-quinolylamino)-2-{p-[(1r,3r)-3-(dimethylamino)cyclobutoxy]phenylamino}pyrimidine]",5.70 to 6.30
11,"COc1ccc2cc(Nc3ccnc(Nc4ccc(O[C@H]5C[C@H](N6CCOCC6)C5)cc4)n3)cnc2c1 [Compound 356, 4-(7-methoxy-3-quinolylamino)-2-{p-[(1r,3r)-3-morpholinocyclobutoxy]phenylamino}pyrimidine]",5.70 to 6.30
12,"COc1cc(Nc2nccc(Nc3cnc4c(Cl)cccc4c3)n2)ccc1O[C@H]1C[C@H](N(C)C)C1 [Compound 358, 4-(8-chloro-3-quinolylamino)-2-{3-methoxy-4-[(1r,3r)-3-(dimethylamino)cyclobutoxy]phenylamino}pyrimidine]",≥ 6.30
13,"COc1cc(Nc2nccc(Nc3cnc4c(c3)OCCO4)n2)ccc1O[C@H]1C[C@H](N2CCS(=O)(=O)CC2)C1 [Compound 359, 4-[(1r,3r)-3-{4-[4-(2,3-dihydro-1,4-dioxa-5-aza-7-naphthylamino)-2-pyrimidinylamino]-2-methoxyphenoxy}cyclobutyl]-1λ^6,4-thiazinane-1,1-dione]",≥ 6.30
14,"COc1cc(Nc2nccc(Nc3cnc4c(c3)CCCO4)n2)ccc1O[C@H]1C[C@H](N2CCOCC2)C1 [Compound 360, 4-(3,4-dihydro-2H-1-oxa-8-azanaphth-6-ylamino)-2-{3-methoxy-4-[(1r,3r)-3-morpholinocyclobutoxy]phenylamino}pyrimidine]",≥ 6.30
15,"COc1cc(Nc2nccc(Nc3cnc4ccc(Cl)cc4c3)n2)ccc1O[C@H]1C[C@H](N2CCOCC2)C1 [Compound 361, 4-(6-chloro-3-quinolylamino)-2-{3-methoxy-4-[(1r,3r)-3-morpholinocyclobutoxy]phenylamino}pyrimidine]",≥ 6.30
16,"c1ccc2ncc(Nc3ccnc(Nc4ccc(O[C@H]5C[C@@H](N6CCCCC6)C5)cc4)n3)cc2c1 [Compound 363, 4-(3-quinolylamino)-2-{p-[(1s,3s)-3-piperidinocyclobutoxy]phenylamino}pyrimidine]",≥ 6.30
17,"COc1cc(Nc2nccc(Nc3cnc4c(c3)CCCC4)n2)ccc1O[C@H]1C[C@@H](N(C)C)C1 [Compound 364, 2-{3-methoxy-4-[(1s,3s)-3-(dimethylamino)cyclobutoxy]phenylamino}-4-(5,6,7,8-tetrahydro-3-quinolylamino)pyrimidine]",≥ 6.30
18,"COc1cc(Nc2nccc(Nc3cnc4c(c3)CCCO4)n2)ccc1O[C@H]1C[C@@H](N(C)C)C1 [Compound 365, 4-(3,4-dihydro-2H-1-oxa-8-azanaphth-6-ylamino)-2-{3-methoxy-4-[(1s,3s)-3-(dimethylamino)cyclobutoxy]phenylamino}pyrimidine]",≥ 6.30

row,Structure (SMILES),pIC50
1,"COc1cc(Nc2nccc(Nc3cnc4c(c3)SCCC4)n2)ccc1O[C@H]1C[C@@H](N(C)C)C1 [Compound 366, 4-(3,4-dihydro-2H-1-thia-5-azanaphth-7-ylamino)-2-{3-methoxy-4-[(1s,3s)-3-(dimethylamino)cyclobutoxy]phenylamino}pyrimidine]",≥ 6.30
2,"CN(C)[C@H]1C[C@@H](Oc2ccc(Nc3nccc(Nc4cnc5ccccc5c4)n3)cc2)C1 [Compound 367, 4-(3-quinolylamino)-2-{p-[(1s,3s)-3-(dimethylamino)cyclobutoxy]phenylamino}pyrimidine]",≥ 6.30
3,"COc1cc(Nc2nccc(Nc3cnc4ccccc4c3)n2)ccc1O[C@H]1C[C@H](N(C)C)C1 [Compound 369, 2-{3-methoxy-4-[(1r,3r)-3-(dimethylamino)cyclobutoxy]phenylamino}-4-(3-quinolylamino)pyrimidine]",≥ 6.30
4,"COc1cc(Nc2nccc(Nc3cnc4c(c3)CCCC43CCCC3)n2)ccc1OCCCN1CCCCC1 [Compound 370, 4-(6′,7′-dihydro-5′H-spiro[cyclopentane-1,8′-quinolin]-3′-ylamino)-2-[3-methoxy-4-(3-piperidinopropoxy)phenylamino] pyrimidine]",≥ 6.30
5,"O=S1(=O)CCN(CCCOc2ccc(Nc3nccc(Nc4cnc5c(c4)C4CCC5C4)n3)cc2)CC1 (centres unmarked) [Compound 371, 4-[3-(p-{4-(3-azatricyclo[6.2.1.0^2,7]undeca-2,4,6-trien-5-ylamino)-2-pyrimidinylamino}phenoxy)propyl]-1λ^6,4-thiazinane-1,1-dione]",≥ 6.30
6,"c1cc(Nc2cnc3c(c2)C2CCC3C2)nc(Nc2ccc(OCCCN3CCOCC3)cc2)n1 (centres unmarked) [Compound 372, 4-(3-azatricyclo[6.2.1.0^2,7]undeca-2,4,6-trien-5-ylamino)-2-[p-(3-morpholinopropoxy)phenylamino]pyrimidine]",≥ 6.30
7,"c1cc(Nc2cnc3c(c2)C2CCC3CC2)nc(Nc2ccc(OCCCN3CCOCC3)cc2)n1 [Compound 373, 4-(3-azatricyclo[6.2.2.0^2,7]dodeca-2,4,6-trien-5-ylamino)-2-[p-(3-morpholinopropoxy)phenylamino] pyrimidine]",≥ 6.30
8,"COc1cc(Nc2nccc(Nc3cnc4c(c3)CCCC4)n2)ccc1OCCCN1CCCCC1 [Compound 374, 2-[3-methoxy-4-(3-piperidinopropoxy)phenylamino]-4-(5,6,7,8-tetrahydro-3-quinolylamino)pyrimidine]",≥ 6.30
9,"COc1cc(Nc2nccc(Nc3cnc4c(c3)CCCO4)n2)ccc1OCCCN1CCCCC1 [Compound 375, 4-(3,4-dihydro-2H-1-oxa-8-azanaphth-6-ylamino)-2-[3-methoxy-4-(3-piperidinopropoxy)phenylamino]pyrimidine]",≥ 6.30
10,"COc1cc(Nc2nccc(Nc3ccc4c(c3)OCCO4)n2)ccc1OCCCN1CCCCC1 [Compound 376, 4-(2,3-dihydro-1,4-benzodioxin-6-ylamino)-2-[3-methoxy-4-(3-piperidinopropoxy)phenylamino]pyrimidine]",≥ 6.30
11,"COc1cc(Nc2nccc(Nc3cnc4c(c3)CSCC4)n2)ccc1OCCCN1CCCCC1 [Compound 377, 4-(7,8-dihydro-5H-6-thia-1-azanaphth-3-ylamino)-2-[3-methoxy-4-(3-piperidinopropoxy)phenylamino]pyrimidine]",≥ 6.30
12,"COc1cc(Nc2nccc(Nc3cnc4c(c3)SCCC4)n2)ccc1OCCCN1CCCCC1 [Compound 378, 4-(3,4-dihydro-2H-1-thia-5-azanaphth-7-ylamino)-2-[3-methoxy-4-(3-piperidinopropoxy)phenylamino]pyrimidine]",≥ 6.30
13,"COc1cc(Nc2nccc(Nc3cnc4c(c3)CN(C)CC4)n2)ccc1OCCCN1CCCCC1 [Compound 379, 2-[3-methoxy-4-(3-piperidinopropoxy)phenylamino]-4-(6-methyl-5,6,7,8-tetrahydro-1,6-diaza-3-naphthylamino)pyrimidine]",5.00 to 5.70
14,"COc1cc(Nc2nccc(Nc3cnc4[nH]ccc4c3)n2)ccc1OCCCN1CCCCC1 [Compound 381, 4-(1H-1,7-diazainden-5-ylamino)-2-[3-methoxy-4-(3-piperidinopropoxy)phenylamino]pyrimidine]",≥ 6.30
15,"COc1cc(Nc2nccc(Nc3cnc4c(c3)OCCC4)n2)ccc1OCCCN1CCCCC1 [Compound 383, 4-(3,4-dihydro-2H-1-oxa-5-azanaphth-7-ylamino)-2-[3-methoxy-4-(3-piperidinopropoxy)phenylamino]pyrimidine]",≥ 6.30
16,"COc1cc(Nc2nccc(Nc3cnc4c(c3)COC(C)(C)C4)n2)ccc1OCCCN1CCCCC1 [Compound 385, 4-(7,7-dimethyl-7,8-dihydro-5H-6-oxa-1-azanaphth-3-ylamino)-2-[3-methoxy-4-(3-piperidinopropoxy)phenylamino]pyrimidine]",5.70 to 6.30
17,"COc1cc(Nc2nccc(Nc3cnc4c(c3)C(C)(C)OC(C)(C)C4)n2)ccc1OCCCN1CCCCC1 [Compound 386, 2-[3-methoxy-4-(3-piperidinopropoxy)phenylamino]-4-(5,5,7,7-tetramethyl-7,8-dihydro-5H-6-oxa-1-azanaphth-3-ylamino)pyrimidine]",5.70 to 6.30
